Earlier results as cited in patent US12171169B2, “Pest repelling drip irrigation pipe” (RIVULIS PLASTRO LTD., priority 2017, dated 2024).

Legend:
[1] = test system: pests; details: 1R-cis versus 1S-cis enantiomer
[2] = test system: humans; details: 1S-cis versus 1R-cis enantiomer

Row | Compound | effectiveness as a pesticide relative to 1S-cis-bifenthrin [1] | toxicity to humans relative to 1R-cis-bifenthrin [2]
1 | Cc1c(COC(=O)[C@@H]2[C@H](/C=C(\Cl)C(F)(F)F)C2(C)C)cccc1-c1ccccc1 [1R-cis-bifenthrin, (2-methyl-[1,1′-biphenyl]-3-yl)methyl (1R,3R)-3-((Z)-2-chloro-3,3,3-trifluoroprop-1-en-1-yl)-2,2-dimethylcyclopropane-1-carboxylate] | more than 300 times | 
2 | Cc1c(COC(=O)[C@H]2[C@@H](/C=C(\Cl)C(F)(F)F)C2(C)C)cccc1-c1ccccc1 [1S-cis-Bifenthrin, (2-methyl-[1,1′-biphenyl]-3-yl)methyl (1S,3S)-3-((Z)-2-chloro-3,3,3-trifluoroprop-1-en-1-yl)-2,2-dimethylcyclopropane-1-carboxylate] |  | 3-4 times
